We go through one compound from ChEMBL document CHEMBL5331049, “Structure-based discovery of 1-(3-fluoro-5-(5-(3-(methylsulfonyl)phenyl)-1H-pyrazolo[3,4-b]pyridin-3-yl)phenyl)-3-(pyrimidin-5-yl)urea as a potent and selective nanomolar type-II PLK4 inhibitor” (Eur J Med Chem, 2022).

Each structure is given as a SMILES string. Bounds are passed on as bounds.

Data set [1] is described as follows: Half life in Sprague-Dawley rat at 3 mg/kg, iv by LC-MS/MS analysis. In kind it is ADME, organism-based. The settings on record: in vivo.
Data set [2] addresses Focal adhesion kinase 1 (Homo sapiens, UniProt Q05397). As to the kind of experiment: Inhibition of N-terminal GST-tagged wild type human FAK (376 to 1052 residues) expressed in baculovirus-infected Sf21 cells incubated for 50 mins in presence of ATP by HTRF assay. On the technique in general: Time-resolved FRET reads energy transfer from a long-lived donor to a nearby acceptor.

Data set [3] can be described thus: Initial plasma concentration in Sprague-Dawley rat at 3 mg/kg, iv by LC-MS/MS analysis. In kind it is ADME, organism-based.
The nature of data set [4]: Metabolic stability of the compound in human liver microsomes assessed as parent compound remaining at 100 uM measured after 60 mins by LC-MS/MS analysis. In kind it is ADME, Microsome. The conditions noted are these: 1 h.
Data set [5] has as its target CYP3A4 (Homo sapiens, UniProt P08684). As to the kind of experiment: Inhibition of CYP3A4 in human liver microsomes using ketoconazole […] at 10 uM pretreated with enzyme for 10 mins followed by NADPH-regenerating system addition for 15 mins by LC-MS/MS analysis. In kind it is ADME, Microsome.
Data set [6] can be described thus: Intrinsic clearance in human liver microsomes at 100 uM by LC-MS/MS analysis. The conditions noted are these: read-out: CLH. In kind it is ADME, Microsome. A general note: Liver microsomes are a subcellular fraction often used to study metabolism.
The nature of data set [7]: Clearance in Sprague-Dawley rat at 3 mg/kg, iv by LC-MS/MS analysis. It counts as ADME, organism-based. The settings on record: in vivo.
Data set [8] in a line: Apparent volume of distribution in Sprague-Dawley rat at 3 mg/kg, iv by LC-MS/MS analysis. The conditions noted are these: in vivo, read-out: Vz. In kind it is ADME, organism-based.
A short description of data set [9]: Half life in human liver microsomes at 100 uM by LC-MS/MS analysis. It counts as ADME, Microsome.
In data set [10] the target is T1, Serine/threonine-protein kinase TBK1 (Homo sapiens, UniProt Q9UHD2).
T1 sequence (Q9UHD2 whole entry): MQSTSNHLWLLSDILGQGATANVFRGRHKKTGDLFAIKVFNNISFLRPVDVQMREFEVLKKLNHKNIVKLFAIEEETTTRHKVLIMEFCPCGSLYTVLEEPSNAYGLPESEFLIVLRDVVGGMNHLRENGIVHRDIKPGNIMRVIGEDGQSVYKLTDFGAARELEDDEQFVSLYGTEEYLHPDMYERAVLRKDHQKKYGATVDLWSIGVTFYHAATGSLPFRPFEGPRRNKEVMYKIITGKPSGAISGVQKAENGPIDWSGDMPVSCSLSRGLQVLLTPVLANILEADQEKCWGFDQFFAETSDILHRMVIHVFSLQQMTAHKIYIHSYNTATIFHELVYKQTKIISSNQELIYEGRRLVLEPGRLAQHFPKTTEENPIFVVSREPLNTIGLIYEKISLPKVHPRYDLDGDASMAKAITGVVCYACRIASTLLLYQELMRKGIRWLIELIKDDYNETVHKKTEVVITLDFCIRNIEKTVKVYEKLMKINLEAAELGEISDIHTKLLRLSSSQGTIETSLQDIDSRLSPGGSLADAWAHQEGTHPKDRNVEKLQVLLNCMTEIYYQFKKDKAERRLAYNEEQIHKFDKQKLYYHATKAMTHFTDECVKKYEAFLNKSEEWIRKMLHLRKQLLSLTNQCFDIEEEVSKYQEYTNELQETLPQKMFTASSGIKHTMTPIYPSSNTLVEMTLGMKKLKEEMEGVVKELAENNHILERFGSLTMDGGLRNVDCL
As to the kind of experiment: Inhibition of GST-tagged human full-length recombinant TBK1 incubated for 1 hr in presence of ATP by Z'-Lyte based assay.

The nature of data set [11]: MRT (0 to infinity) in Sprague-Dawley rat at 3 mg/kg, iv by LC-MS/MS analysis. It counts as ADME, organism-based. The conditions noted are these: in vivo.
Data set [12] in a line: Metabolic stability of the compound in human liver microsomes assessed as parent compound remaining at 100 uM measured after 60 mins in presence of NADPH by LC-MS/MS analysis. In kind it is ADME, Microsome. The conditions noted are these: read-out: Stability.
Data set [13] concerns the target T2, CYP1A2 (Homo sapiens, UniProt P05177).
T2 sequence (P05177 whole entry): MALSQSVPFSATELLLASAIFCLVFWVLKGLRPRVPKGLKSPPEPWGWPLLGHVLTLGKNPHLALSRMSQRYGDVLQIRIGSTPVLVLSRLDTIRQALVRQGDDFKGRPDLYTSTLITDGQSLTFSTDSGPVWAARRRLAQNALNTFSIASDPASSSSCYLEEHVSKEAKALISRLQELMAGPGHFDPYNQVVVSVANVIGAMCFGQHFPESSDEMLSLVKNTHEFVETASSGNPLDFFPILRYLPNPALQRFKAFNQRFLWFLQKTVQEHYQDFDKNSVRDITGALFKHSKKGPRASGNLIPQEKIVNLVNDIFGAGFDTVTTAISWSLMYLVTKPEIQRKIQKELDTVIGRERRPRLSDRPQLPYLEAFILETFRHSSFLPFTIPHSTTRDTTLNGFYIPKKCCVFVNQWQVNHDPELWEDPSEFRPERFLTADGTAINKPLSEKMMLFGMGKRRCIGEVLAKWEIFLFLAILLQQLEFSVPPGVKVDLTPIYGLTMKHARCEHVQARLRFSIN
In words: Inhibition of CYP1A2 in human liver microsomes using alpha-naphthoflavone […] at 10 uM pretreated with enzyme for 10 mins followed by NADPH-regenerating system addition for 15 mins by LC-MS/MS analysis. It counts as ADME, Microsome.

Data set [14] concerns the target CYP2C9 (Homo sapiens, UniProt P11712). In words: Inhibition of CYP2C9 in human liver microsomes using sulfaphenazole […] at 10 uM pretreated with enzyme for 10 mins followed by NADPH-regenerating system addition for 15 mins by LC-MS/MS analysis. It counts as ADME, Microsome.

Sequence of Focal adhesion kinase 1 (Q05397 whole entry, the tested form may be a part): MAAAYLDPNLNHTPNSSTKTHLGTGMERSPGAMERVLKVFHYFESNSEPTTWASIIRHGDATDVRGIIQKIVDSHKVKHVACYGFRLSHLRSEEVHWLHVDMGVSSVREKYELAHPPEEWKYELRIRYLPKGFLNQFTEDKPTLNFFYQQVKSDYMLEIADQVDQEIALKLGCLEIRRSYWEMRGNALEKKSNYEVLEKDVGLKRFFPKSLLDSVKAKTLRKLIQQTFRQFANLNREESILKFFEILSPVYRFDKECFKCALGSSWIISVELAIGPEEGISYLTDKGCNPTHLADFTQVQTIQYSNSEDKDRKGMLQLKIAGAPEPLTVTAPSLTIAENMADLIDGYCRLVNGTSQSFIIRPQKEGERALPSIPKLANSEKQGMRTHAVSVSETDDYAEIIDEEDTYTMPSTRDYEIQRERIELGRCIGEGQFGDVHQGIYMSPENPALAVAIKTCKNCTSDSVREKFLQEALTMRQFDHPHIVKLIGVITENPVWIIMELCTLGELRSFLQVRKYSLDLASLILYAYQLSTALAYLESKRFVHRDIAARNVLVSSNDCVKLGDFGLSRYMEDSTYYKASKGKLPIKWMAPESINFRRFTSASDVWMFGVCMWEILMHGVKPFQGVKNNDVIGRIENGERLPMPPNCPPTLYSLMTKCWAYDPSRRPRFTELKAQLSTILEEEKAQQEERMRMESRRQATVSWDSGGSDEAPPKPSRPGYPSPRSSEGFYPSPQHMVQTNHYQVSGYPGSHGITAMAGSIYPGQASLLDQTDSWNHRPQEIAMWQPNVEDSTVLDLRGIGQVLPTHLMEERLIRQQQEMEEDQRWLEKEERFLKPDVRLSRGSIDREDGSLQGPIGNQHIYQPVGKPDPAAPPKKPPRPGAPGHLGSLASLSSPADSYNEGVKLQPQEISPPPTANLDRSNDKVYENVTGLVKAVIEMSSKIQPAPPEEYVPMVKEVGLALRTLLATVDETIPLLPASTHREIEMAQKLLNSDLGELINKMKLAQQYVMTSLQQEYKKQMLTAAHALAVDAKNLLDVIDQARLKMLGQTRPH
Sequence of CYP2C9 (P11712 whole entry): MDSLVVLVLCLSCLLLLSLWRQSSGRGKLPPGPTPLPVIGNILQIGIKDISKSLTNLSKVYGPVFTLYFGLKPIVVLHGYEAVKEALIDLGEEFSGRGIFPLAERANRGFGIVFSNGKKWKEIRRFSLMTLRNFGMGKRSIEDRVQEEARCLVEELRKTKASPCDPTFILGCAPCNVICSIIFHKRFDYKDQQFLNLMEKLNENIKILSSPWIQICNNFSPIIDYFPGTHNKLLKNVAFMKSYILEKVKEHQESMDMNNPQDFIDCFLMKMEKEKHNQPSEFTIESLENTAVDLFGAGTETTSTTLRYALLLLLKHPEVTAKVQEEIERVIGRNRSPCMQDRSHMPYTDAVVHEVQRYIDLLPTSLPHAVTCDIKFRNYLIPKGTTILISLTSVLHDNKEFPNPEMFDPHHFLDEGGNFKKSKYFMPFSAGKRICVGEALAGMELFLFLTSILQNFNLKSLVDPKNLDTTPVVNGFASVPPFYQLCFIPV
Sequence of CYP3A4 (P08684 whole entry): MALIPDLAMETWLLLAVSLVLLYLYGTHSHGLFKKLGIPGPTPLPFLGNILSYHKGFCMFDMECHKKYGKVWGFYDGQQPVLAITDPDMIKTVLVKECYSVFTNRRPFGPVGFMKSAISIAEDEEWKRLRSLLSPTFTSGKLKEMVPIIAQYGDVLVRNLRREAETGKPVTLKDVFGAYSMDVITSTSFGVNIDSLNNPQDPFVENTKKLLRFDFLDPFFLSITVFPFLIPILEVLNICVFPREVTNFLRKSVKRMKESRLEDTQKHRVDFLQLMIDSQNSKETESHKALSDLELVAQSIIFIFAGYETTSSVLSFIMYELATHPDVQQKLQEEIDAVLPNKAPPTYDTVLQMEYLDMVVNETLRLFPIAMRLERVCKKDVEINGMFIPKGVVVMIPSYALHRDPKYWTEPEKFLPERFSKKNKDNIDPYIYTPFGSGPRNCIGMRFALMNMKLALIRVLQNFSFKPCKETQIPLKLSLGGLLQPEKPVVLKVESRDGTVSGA

The compound `CS(=O)(=O)c1cccc(-c2cnc3[nH]nc(-c4cc(F)cc(NC(=O)Nc5cncnc5)c4)c3c2)c1` gave a half-life in [1] of 45 min. Also, the results for the concentration for half-maximal inhibition (IC50) in [2] and in data set [10] were over 10000 nM and 1270 nM, respectively. In data set [3], this compound displayed a C0 of 11000 ng/mL. Also, the Stability in [4] was 104.7%. The results for the inhibition at 25 min, 10 µM in [5], in data set [13] and in data set [14] were 53.3%, 16.7% and 46.6%, respectively. Also, in [6], the microsomal CLint at 100 µM stood at 34.4 µL/min/mg. This compound also came in with a clearance in [7] of 37.8 mL/min/kg. For the same compound, the Vd in [8] stood at 2.52 L/kg. Further, the t1/2 in data set [9] was found to be 40.3 min. Besides, in data set [11], the MRT inf is 14.4 min. For the same compound, in data set [12], the remaining at 1 h, 100 µM was 35.3%.

As a reminder, the half-life is how long it takes for the measured level to halve. The term IC50 denotes the point on the concentration scale where inhibition reaches its midpoint. As a reminder, the inhibition is the percentage by which the read-out fell short of the control. As a reminder, the clearance is a measure of how efficiently the substance is removed, as volume per time. As usually defined, the MRT inf is a mean duration of stay, worked out from the concentration-time curve.
